Results: PubChem BioAssay (NCI)
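Following 48 hours of exposure in 96-well plates, responses at five concentrations were used to interpolate endpoints linearly. GI50 = concentration required for 50% inhibition of growth. The concentration for full growth arrest is given as TGI.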

Assays:
Experiment in all cases: NCI tumour cell line growth inhibition, 48 h
[1] = system: HT29 colon
[2] = system: EKVX NSCLC
[3] = system: SW-620 colon
[4] = system: SK-OV-3 ovarian
[5] = system: NCI-H23 lung
[6] = system: K-562 leukemia
[7] = system: HOP-92 NSCLC
[8] = system: OVCAR-3 ovarian
[9] = system: MDA-MB-435
[10] = system: HOP-62 NSCLC

## O=C(O)CNS(=O)(=O)c1ccc(NC(=O)c2cccc([N+](=O)[O-])c2)cc1
[1]
  TGI: > 100 µM
[2]
  TGI: > 100 µM
[3]
  TGI: > 100 µM
[4]
  TGI: > 100 µM
[5]
  TGI: > 100 µM
[6]
  TGI: > 100 µM
[7]
  TGI: > 100 µM
[8]
  TGI: > 100 µM

## CN(C)c1ccc(/C=N/Nc2ccc(-c3nc4ccccc4[nH]3)cc2)cc1
[9]
  GI50: 8.25 µM
  TGI: > 50 µM
[2]
  GI50: 17.6 µM
  TGI: > 50 µM
[3]
  GI50: 18.9 µM
  TGI: > 50 µM
[4]
  GI50: 21.2 µM
  TGI: > 50 µM
[5]
  GI50: 13.8 µM
  TGI: 45.5 µM
[6]
  GI50: 2.86 µM
  TGI: 16.3 µM
[7]
  GI50: 12.4 µM
  TGI: > 50 µM
[8]
  GI50: 31.7 µM
  TGI: > 50 µM
[10]
  GI50: 20.8 µM
  TGI: > 50 µM

## Cc1ccc(C)c2sc3cc(=O)ccc-3nc12
[1]
  TGI: > 100 µM
[2]
  TGI: > 100 µM
[3]
  TGI: > 100 µM
[4]
  TGI: > 100 µM
[5]
  TGI: > 100 µM
[6]
  TGI: 79.6 µM
[7]
  TGI: 83.3 µM
[8]
  TGI: > 100 µM
[10]
  TGI: > 100 µM

## COS(=O)CCOC(=O)c1ccccc1SSc1ccccc1C(=O)OCCS(=O)OC (stereo unspecified)
[1]
  TGI: 28.8 µM
[2]
  TGI: > 100 µM
[3]
  TGI: 87.4 µM
[4]
  TGI: > 100 µM
[5]
  TGI: 44.4 µM
[6]
  TGI: 69.6 µM
[7]
  TGI: 74.2 µM
[8]
  TGI: 54.5 µM
[10]
  TGI: > 100 µM

## CC(C)c1cc2c(O)c(c1)Cc1cc(C(C)C)cc(c1O)Cc1cc(C(C)C)cc(c1O)Cc1cc(C(C)C)cc(c1O)Cc1cc(C(C)C)cc(c1O)Cc1cc(C(C)C)cc(c1O)C2
[1]
  TGI: > 100 µM
[2]
  TGI: > 100 µM
[3]
  TGI: > 100 µM
[5]
  TGI: > 100 µM
[6]
  TGI: > 100 µM
[7]
  TGI: > 100 µM
[8]
  TGI: > 100 µM
[10]
  TGI: > 100 µM

## O=C1C=Cc2noc3cccc1c23
[1]
  TGI: 79.7 µM
[2]
  TGI: 10.2 µM
[3]
  TGI: 16.2 µM
[4]
  TGI: 32.1 µM
[5]
  TGI: 26 µM
[6]
  TGI: 9.65 µM
[7]
  TGI: 5.22 µM
[8]
  TGI: 10.9 µM

## Cc1nc(Nc2ccc([N+](=O)[O-])cc2)sc1C(=O)/C=C/c1ccc(N(C)C)cc1
[1]
  TGI: > 100 µM
[2]
  TGI: > 100 µM
[3]
  TGI: > 100 µM
[4]
  TGI: > 100 µM
[5]
  TGI: > 100 µM
[6]
  TGI: > 100 µM
[7]
  TGI: > 100 µM
[8]
  TGI: > 100 µM
[10]
  TGI: > 100 µM

## CC1=CC(=O)c2[nH]c3ccccc3c2C1=O
[1]
  GI50: 17.6 µM
  TGI: > 25 µM
[2]
  GI50: 4.04 µM
  TGI: 8.48 µM
[3]
  GI50: 3.94 µM
  TGI: 7.65 µM
[4]
  GI50: 21.1 µM
  TGI: > 25 µM
[5]
  GI50: 3.69 µM
  TGI: 7.28 µM
[6]
  GI50: 5.56 µM
  TGI: 14 µM
[7]
  GI50: 3.98 µM
  TGI: 7.36 µM
[8]
  TGI: 8.02 µM
[10]
  TGI: > 25 µM

## CC(C)(C)c1ccc(C(O)(c2ccc(C(C)(C)C)cc2)c2ccc(C(C)(C)C)cc2)cc1
[9]
  TGI: > 100 µM
[1]
  TGI: > 100 µM
[2]
  TGI: > 100 µM
[3]
  TGI: > 100 µM
[4]
  TGI: > 100 µM
[5]
  TGI: > 100 µM
[6]
  TGI: > 100 µM
[8]
  TGI: > 100 µM
[10]
  TGI: > 100 µM

## NC(=O)c1ccc(NC(=O)c2oc3ccccc3c2-c2cnn(-c3ccccc3)c2)cc1
[9]
  GI50: > 100 µM
  TGI: > 100 µM
[3]
  GI50: > 100 µM
  TGI: > 100 µM
[4]
  GI50: > 100 µM
  TGI: > 100 µM
[5]
  GI50: 6 µM
  TGI: > 100 µM
[6]
  GI50: > 100 µM
  TGI: > 100 µM
[7]
  GI50: 1.69 µM
  TGI: 6.46 µM
[10]
  GI50: 3.33 µM
  TGI: 46.6 µM

## Clc1cccc(C2SCc3nc4ccccc4n32)c1Cl (stereo unspecified)
[1]
  TGI: 27.5 µM
[2]
  TGI: 30.8 µM
[3]
  TGI: 30.8 µM
[4]
  TGI: 34.9 µM
[5]
  TGI: 32.1 µM
[6]
  TGI: 45 µM
[7]
  TGI: 30.1 µM
[8]
  TGI: 33.7 µM
[10]
  TGI: 32 µM

## C/C(=N\N=C(N)N)c1sc(-c2nc(C)c(/C(C)=N/N=C(N)N)s2)nc1C
[1]
  TGI: > 100 µM
[2]
  TGI: > 100 µM
[3]
  TGI: > 100 µM
[4]
  TGI: > 100 µM
[5]
  TGI: > 100 µM
[6]
  TGI: > 100 µM
[7]
  TGI: > 100 µM
[8]
  TGI: > 100 µM
[10]
  TGI: > 100 µM

## O=C1CCCC2COc3ccc(O)c1c32 (stereo unspecified)
[1]
  TGI: > 100 µM
[2]
  TGI: > 100 µM
[4]
  TGI: > 100 µM
[5]
  TGI: > 100 µM
[6]
  TGI: > 100 µM
[7]
  TGI: > 100 µM
[8]
  TGI: > 100 µM
[10]
  TGI: > 100 µM

## O=[N+]([O-])C(=C(c1ccccc1)c1ccccc1)[N+](=O)[O-]
[3]
  TGI: 25.4 µM
[5]
  TGI: 52.8 µM
[6]
  TGI: > 100 µM
[8]
  TGI: 35.5 µM

## CC1=C[C@H]2C[C@@]3(C)O[C@@H]([C@]4(C)CC[C@H]([C@@H](C)C(=O)O)OO4)CC3C(C)(C)[C@H]2CC1 (stereo partly specified)
[1]
  TGI: 1.77 µM
[2]
  TGI: 3.67 µM
[3]
  TGI: 0.856 µM
[5]
  TGI: 3.55 µM
[7]
  TGI: 0.273 µM
[8]
  TGI: 3.29 µM
[10]
  TGI: 3.94 µM

## O=C1CCCc2c(O)ccc(O)c21
[1]
  TGI: > 100 µM
[2]
  TGI: > 100 µM
[3]
  TGI: > 100 µM
[4]
  TGI: > 100 µM
[5]
  TGI: > 100 µM
[6]
  TGI: > 100 µM
[8]
  TGI: > 100 µM
[10]
  TGI: > 100 µM

## O=C(O)c1oc2ccc([N+](=O)[O-])c3c2c1CCC3
[1]
  TGI: > 100 µM
[2]
  TGI: > 100 µM
[3]
  TGI: > 100 µM
[5]
  TGI: > 100 µM
[7]
  TGI: > 100 µM
[8]
  TGI: > 100 µM
[10]
  TGI: > 100 µM

## NC(=O)Cn1c(=O)[nH]c(=O)c2[nH]cnc21
[1]
  TGI: > 100 µM
[2]
  TGI: > 100 µM
[3]
  TGI: > 100 µM
[4]
  TGI: > 100 µM
[5]
  TGI: > 100 µM
[6]
  TGI: > 100 µM
[8]
  TGI: > 100 µM
[10]
  TGI: > 100 µM

## COc1ccc(C2CC(C)=Nc3c([nH]c(=S)[nH]c3=O)N2)cc1 (stereo unspecified)
[1]
  TGI: 47.3 µM
[2]
  TGI: 50.2 µM
[3]
  TGI: 19 µM
[4]
  TGI: 38.2 µM
[5]
  TGI: 55.6 µM
[6]
  TGI: 34.4 µM
[7]
  TGI: > 100 µM
[8]
  TGI: 55.2 µM
[10]
  TGI: 68.5 µM

## Clc1ccc(CCN2CCOCC2)c(Cl)c1
[1]
  TGI: > 100 µM
[2]
  TGI: > 100 µM
[4]
  TGI: > 100 µM
[5]
  TGI: > 100 µM
[6]
  TGI: > 100 µM
[7]
  TGI: > 100 µM
[10]
  TGI: > 100 µM

## CC(C)S(=O)(=O)n1c(N)nc2ccc(/C(=N/O)c3ccccc3)cc21
[1]
  TGI: 36.8 µM
[2]
  TGI: 59.1 µM
[3]
  TGI: 45.3 µM
[4]
  TGI: 83 µM
[5]
  TGI: 60.8 µM
[6]
  TGI: > 100 µM
[7]
  TGI: 41.1 µM
[8]
  TGI: 50.6 µM
[10]
  TGI: 40.8 µM

## S=C1OC2C3C4CC5C3C(O1)C1C5C4C21 (stereo unspecified)
[1]
  TGI: > 100 µM
[2]
  TGI: > 100 µM
[3]
  TGI: > 100 µM
[4]
  TGI: > 100 µM
[7]
  TGI: > 100 µM
[8]
  TGI: > 100 µM
[10]
  TGI: > 100 µM

## OCC(O)C(OC1OC(CO)C(O)C(O)C1O)c1nn(-c2ccc(F)cc2)c2nc3cc(Cl)c(Cl)cc3cc12 (stereo unspecified)
[1]
  TGI: > 100 µM
[2]
  TGI: > 100 µM
[4]
  TGI: > 100 µM
[5]
  TGI: > 100 µM
[6]
  TGI: > 100 µM
[8]
  TGI: > 100 µM
[10]
  TGI: > 100 µM

## C(=C1/CCCCC([n+]2ccccc2)=N1)/c1ccccc1
[1]
  TGI: > 100 µM
[2]
  TGI: > 100 µM
[3]
  TGI: > 100 µM
[4]
  TGI: > 100 µM
[5]
  TGI: > 100 µM
[6]
  TGI: > 100 µM
[7]
  TGI: > 100 µM
[8]
  TGI: > 100 µM
[10]
  TGI: > 100 µM
